Test results reported in patent US20240150321A1, “PYRAZOLYLSULFONAMIDE COMPOUNDS AND THEIR USE IN THERAPY” (HOTSPOT THERAPEUTICS, INC., priority 2022, published 2024).
Like-named read-outs stand apart in the source and are kept apart here.

Tests used:
[1] = target: Avi-tagged FL MALT-1 (Homo sapiens (Human), UniProt Q9UDY8); assay: MALT-1 Fluorogenic Peptide Cleavage Assay (MALT1 inhibition assay); format: biochemical; conditions: Ac-LRSR-AMC peptide substrate, 30 min pre-incubation, 90 min reaction at room temperature
How it was run: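 Cleavage of Ac-LRSR-AMC, read as fluorescence at 342/441 nm after 90 min at room temperature, with substrate working stocks of 50 μM (Km) or 280 μM (10×Km). Enzyme, Avi-tagged full-length MALT-1 (40 nM stock), was first pre-incubated 30 min with compound in citrate/HEPES pH 6.89 buffer with TCEP, EDTA, CHAPS and 2% DMSO; IC50 fitted from normalised % inhibition.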

[2] = test system: NF-kB reporter in Jurkat cells; assay: NF-kB reporter assay in Jurkat cells stimulated with aCD3/aCD28/PMA; format: cell-based; conditions: read-out: NF-kB Reporter Assay IC50
How it was run: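 Luminescence (One-Glo) from the NF-kB reporter yielded IC50 values. Stimulation lasted 4 h at 37° C with aCD3, aCD28 and PMA (final 5, 5 and 0.03 […]), after 1 h compound pre-exposure of 25,000 Jurkat cells per well in serum-free RPMI.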

[3] = Homo sapiens, Jurkat cells, 1 hr compound pre-incubation, aCD3/aCD28/PMA stimulation 4 hr, One-Glo readout

Sequence of Avi-tagged FL MALT-1 (Q9UDY8 whole entry): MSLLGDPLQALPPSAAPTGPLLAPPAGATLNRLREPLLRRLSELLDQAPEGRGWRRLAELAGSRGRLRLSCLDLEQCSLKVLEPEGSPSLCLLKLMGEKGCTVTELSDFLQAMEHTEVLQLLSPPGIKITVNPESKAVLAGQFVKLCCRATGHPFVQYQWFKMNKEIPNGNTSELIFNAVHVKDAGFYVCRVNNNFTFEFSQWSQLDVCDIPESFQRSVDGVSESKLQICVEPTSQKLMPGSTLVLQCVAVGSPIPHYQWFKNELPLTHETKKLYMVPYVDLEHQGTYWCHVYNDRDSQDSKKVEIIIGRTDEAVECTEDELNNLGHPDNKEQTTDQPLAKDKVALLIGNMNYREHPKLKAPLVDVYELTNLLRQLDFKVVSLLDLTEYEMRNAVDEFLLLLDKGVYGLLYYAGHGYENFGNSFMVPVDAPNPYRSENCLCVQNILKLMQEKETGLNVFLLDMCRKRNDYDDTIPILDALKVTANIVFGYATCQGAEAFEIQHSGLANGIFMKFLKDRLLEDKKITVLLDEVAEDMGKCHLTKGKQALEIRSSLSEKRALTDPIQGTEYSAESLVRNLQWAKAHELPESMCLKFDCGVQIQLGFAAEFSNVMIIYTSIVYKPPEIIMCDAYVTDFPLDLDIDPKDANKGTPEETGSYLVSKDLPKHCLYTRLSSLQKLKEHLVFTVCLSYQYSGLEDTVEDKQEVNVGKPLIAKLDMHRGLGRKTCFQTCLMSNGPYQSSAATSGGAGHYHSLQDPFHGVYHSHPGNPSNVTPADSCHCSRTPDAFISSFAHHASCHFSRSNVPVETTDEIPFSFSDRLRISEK

IC50 [1] | IC50 [2, 3] | IC50 ([2]; Jurkat cells, 1 hr compound pre-incubation, aCD3/aCD28/PMA stimulation 4 hr, One-Glo readout) | Compound | IC50 ([2]; Homo sapiens, Jurkat)
> 2500 nM | < 400 nM |  | Cn1ncc2cccc(NS(=O)(=O)c3cnn(-c4cc(C5(C#N)COC5)ccn4)c3)c21 [Compound I-483] | 
> 2500 nM | < 400 nM |  | COc1ccc2cnn(C)c2c1NS(=O)(=O)c1cnn(-c2cc(C3(O)CC(C)(C)C3)ccn2)c1 [Compound I-479] | 
≤ 400 nM | < 400 nM |  | CC[C@@H](OC)c1ccnc(-n2cc(S(=O)(=O)Nc3c(OC)ccc4cnn(C)c34)cn2)c1 [Compound I-318, N-(6-methoxy-1-methylindazol-7-yl)-1-{4-[(1R)-1-methoxypropyl]pyridin-2-yl}pyrazole-4-sulfonamide] | 
> 2500 nM | < 400 nM |  | COC[C@@H](OC)c1ccnc(-n2cc(S(=O)(=O)Nc3cccc4cnn(C)c34)cn2)c1 [Compound I-341] | 
> 2500 nM | < 400 nM |  | Cn1ncc2cccc(NS(=O)(=O)c3cnn(-c4cc(N5CCC(C)(C)C5)ccn4)c3)c21 [Compound I-421, 1-(4-(3,3-dimethylpyrrolidin-1-yl)pyridin-2-yl)-N-(1-methyl-1H-indazol-7-yl)-1H-pyrazole-4-sulfonamide] | 
> 2500 nM | < 400 nM |  | CN1CC(C)(C)N(c2ccnc(-n3cc(S(=O)(=O)Nc4cccc5cnn(C)c45)cn3)c2)C1=O [Compound I-333] | 
≤ 400 nM | 400 to 1000 nM |  | CCC(CC)(OC)c1ccnc(-n2cc(S(=O)(=O)Nc3c(OC)ccc4cnn(C)c34)cn2)c1 [Compound I-299, N-(6-Methoxy-1-Methyl-1H-Indazol-7-yl)-1-(4-(3-Methoxypentan-3-yl)Pyridin-2-yl)-1H-Pyrazole-4-Sulfonamide] | 
> 2500 nM | < 400 nM |  | Cn1ncc2cccc(NS(=O)(=O)c3cnn(-c4cc(N5CCCCCC5)ccn4)c3)c21 [Compound I-391, 1-[4-(azepan-1-yl)pyridin-2-yl]-N-(1-methylindazol-7-yl)pyrazole-4-sulfonamide] | 
1000 to 2500 nM | < 400 nM |  | COc1ccc2cnn(C)c2c1NS(=O)(=O)c1cnn(-c2cc(N3CCCCC3)ccn2)c1 [Compound I-372] | 
> 2500 nM | > 2500 nM |  | CN1CC[C@@H](n2cc(S(=O)(=O)Nc3cccc4cnn(C)c34)cn2)CC1=O [Compound I-414] | 
400 to 1000 nM | < 400 nM |  | COc1ccc2cnn(C)c2c1NS(=O)(=O)c1cnn(-c2cc(C3(OC)CC4(CC4)C3)ccn2)c1 [Compound I-485, N-(6-methoxy-1-methylindazol-7-yl)-1-(4-{5-methoxyspiro [2.3]hexan-5-yl}pyridin-2-yl) pyrazole-4-sulfonamide] | 

Second part, the compound before the results:

Compound | IC50 [1] | IC50 [2, 3] | IC50 ([2]; Jurkat cells, 1 hr compound pre-incubation, aCD3/aCD28/PMA stimulation 4 hr, One-Glo readout) | IC50 ([2]; Homo sapiens, Jurkat)
CCc1ccc2cnn(C)c2c1NS(=O)(=O)c1cnn(-c2ccnc(C3CC3)c2)c1 [Compound I-33, 1-(2-Cyclopropylpyridin-4-yl)-N-(6-ethyl-1-Methyl-1H-Indazol-7-yl)-1H-Pyrazole-4-Sulfonamide] | ≤ 400 nM | < 400 nM |  | 
Cn1ncc2cccc(NS(=O)(=O)c3cnn(-c4cc(C5(O)CCOC5)ccn4)c3)c21 (centres unmarked) [Compound I-128, 1-(4-(3-hydroxytetrahydrofuran-3-yl)pyridin-2-yl)-N-(1-methyl-1H-indazol-7-yl)-1H-pyrazole-4-sulfonamide] | > 2500 nM | < 400 nM |  | 
COc1ccc2cnn(C)c2c1NS(=O)(=O)c1cn(-c2cc(C(F)(F)F)ccn2)nc1C [Compound I-83, N-(6-Methoxy-1-Methyl-1H-Indazol-7-yl)-3-Methyl-1-(4-(Trifluoromethyl)Pyridin-2-yl)-1H-Pyrazole-4-Sulfonamide] | ≤ 400 nM | < 400 nM |  | 
Cn1ncc2cccc(NS(=O)(=O)c3cnn(-c4cc(N5CCC5)ccn4)c3)c21 [Compound I-248, 1-(4-(azetidin-1-yl)pyridin-2-yl)-N-(1-methyl-1H-indazol-7-yl)-1H-pyrazole-4-sulfonamide] | > 2500 nM |  |  | < 400 nM
COc1ccc2cnn(C)c2c1NS(=O)(=O)c1cnn(-c2cc(C3(O)CC(C)C3)ccn2)c1 (centres unmarked) [Compound I-143, 1-(4-(1-hydroxy-3-methylcyclobutyl)pyridin-2-yl)-N-(6-methoxy-1-methyl-1H-indazol-7-yl)-1H-pyrazole-4-sulfonamide] | 1000 to 2500 nM | < 400 nM |  | 
COc1ccc2cnn(C)c2c1NS(=O)(=O)c1cnn(-c2cc(C(F)F)ccn2)c1 [Compound I-133, 1-(4-(Difluoromethyl)Pyridin-2-yl)-N-(6-Methoxy-1-Methyl-1H-Indazol-7-yl)-1H-Pyrazole-4-Sulfonamide] | ≤ 400 nM | < 400 nM |  | 
Cc1n[nH]c2cccc(NS(=O)(=O)c3cnn(-c4ccc(C(F)(F)F)cn4)c3)c12 [Compound I-45, N-(3-Methyl-1H-Indazol-4-yl)-1-(5-(Trifluoromethyl)Pyridin-2-yl)-1H-Pyrazole-4-Sulfonamide] | > 2500 nM | < 400 nM |  | 
Cc1n[nH]c2cccc(NS(=O)(=O)c3cnn(-c4cc(C5CC5)ccn4)c3)c12 [Compound I-89, 1-(4-Cyclopropylpyridin-2-yl)-N-(3-Methyl-1H-Indazol-4-yl)-1H-Pyrazole-4-Sulfonamide] | > 2500 nM | < 400 nM |  | 
O=S(=O)(Nc1cccc2cnn(C(F)F)c12)c1cnn(-c2cc(C(F)F)ccn2)c1 [Compound I-108, N-[1-(difluoromethyl)indazol-7-yl]-1-[4-(difluoromethyl)pyridin-2-yl]pyrazole-4-sulfonamide] | > 2500 nM | > 2500 nM |  | 
Cn1ncc2cccc(NS(=O)(=O)c3cnn(-c4cc(C5CC5)ccn4)c3)c21 [Compound I-76, 1-(4-Cyclopropylpyridin-2-yl)-N-(1-Methylindazol-7-yl)Pyrazole-4-Sulfonamide] | 1000 to 2500 nM | < 400 nM |  | 
Cc1n[nH]c2cccc(NS(=O)(=O)c3cnn(-c4cc(C5(O)CCC5)ccn4)c3)c12 [Compound I-255, 1-[4-(1-hydroxycyclobutyl)pyridin-2-yl]-N-(3-methyl-1H-indazol-4-yl)pyrazole-4-sulfonamide] | > 2500 nM | < 400 nM |  | 
CC[C@@H](O)c1ccnc(-n2cc(S(=O)(=O)Nc3cccc4cnn(C)c34)cn2)c1 [Compound I-278, (R)-1-(4-(1-hydroxypropyl)pyridin-2-yl)-N-(1-methyl-1H-indazol-7-yl)-1H-pyrazole-4-sulfonamide] | > 2500 nM | < 400 nM |  | 
COC[C@](C)(O)c1ccnc(-n2cc(S(=O)(=O)Nc3cccc4cnn(C)c34)cn2)c1 [Compound I-267] | > 2500 nM | < 400 nM |  | 
COc1ccc2cnn(C)c2c1NS(=O)(=O)c1cnn(-c2cc(C3CCO3)ccn2)c1 (centres unmarked) [Compound I-263, N-(6-methoxy-1-methyl-1H-indazol-7-yl)-1-(4-(oxetan-2-yl)pyridin-2-yl)-1H-pyrazole-4-sulfonamide] | 400 to 1000 nM | < 400 nM |  | 
COC[C@@](C)(O)c1ccnc(-n2cc(S(=O)(=O)Nc3cccc4cnn(C)c34)cn2)c1 [Compound I-275] | > 2500 nM | 1000 to 2500 nM |  | 
N-(6-Methoxy-1-Methyl-1H-Indazol-7-yl)-1-(4-(Trifluoromethyl)Pyridin-2-yl)-1H-Pyrazole-4-Sulfonamide [Compound I-5] | ≤ 400 nM |  | < 400 nM | 
Cn1ncc2ccc(C3CC3)c(NS(=O)(=O)c3cnn(-c4cc(C(F)(F)F)ncn4)c3)c21 [Compound I-53, N-(6-Cyclopropyl-1-Methyl-1H-Indazol-7-yl)-1-(6-(Trifluoromethyl)Pyrimidin-4-yl)-1H-Pyrazole-4-Sulfonamide] | ≤ 400 nM | < 400 nM |  | 
COc1ccc2cnn(C)c2c1NS(=O)(=O)c1cnn(-c2cc(C3(F)COC3)ccn2)c1 [Compound I-69, 1-(4-(3-Fluorooxetan-3-yl)Pyridin-2-yl)-N-(6-Methoxy-1-Methyl-1H-Indazol-7-yl)-1H-Pyrazole-4-Sulfonamide] | ≤ 400 nM | < 400 nM |  | 
COc1ncc2cnn(C)c2c1NS(=O)(=O)c1cnn(-c2cc(C(C)(C)OC)ccn2)c1 [Compound I-261, N-(6-Methoxy-1-Methyl-1H-Pyrazolo[4,3-C]Pyridin-7-yl)-1-(4-(2-Methoxypropan-2-yl)Pyridin-2-yl)-1H-Pyrazole-4-Sulfonamide] | ≤ 400 nM | < 400 nM |  | 
COc1ncc2cnn(C)c2c1NS(=O)(=O)c1cnn(-c2cc(C(C)(F)F)ccn2)c1 [Compound I-141, 1-(4-(1,1-Difluoroethyl)Pyridin-2-yl)-N-(6-Methoxy-1-Methyl-1H-Pyrazolo[4,3-C]Pyridin-7-yl)-1H-Pyrazole-4-Sulfonamide] | ≤ 400 nM | < 400 nM |  | 
COc1ccnc(-n2cc(S(=O)(=O)Nc3cccc4cnn(C)c34)cn2)c1 [Compound I-146, 1-(4-methoxypyridin-2-yl)-N-(1-methylindazol-7-yl)pyrazole-4-sulfonamide] | > 2500 nM | < 400 nM |  | 
COc1ccc2cnn(C)c2c1NS(=O)(=O)c1cnn(-c2ccc(C(F)(F)F)cn2)c1 [Compound I-22, N-(6-Methoxy-1-Methyl-1H-Indazol-7-yl)-1-(5-(Trifluoromethyl)Pyridin-2-yl)-1H-Pyrazole-4-Sulfonamide] | ≤ 400 nM | < 400 nM |  | 
Cc1n[nH]c2cccc(N(C)S(=O)(=O)c3cnn(-c4cc(C(F)(F)F)ccn4)c3)c12 [Compound I-65, N-Methyl-N-(3-Methyl-1H-Indazol-4-yl)-1-(4-(Trifluoromethyl)Pyridin-2-yl)-1H-Pyrazole-4-Sulfonamide] | 400 to 1000 nM | 400 to 1000 nM |  | 
